Assay results as given in US20240238288A1, “ALDOSE REDUCTASE INHIBITORS FOR TREATING SORBITOL DEHYDROGENASE DEFICIENCY” (APPLIED THERAPEUTICS, INC., priority 2020, published 2024).

Test system: fibroblasts from patients with SDH deficiency (biallelic c.757delG)
Assay: Sorbitol levels in human fibroblasts from patients with sorbitol dehydrogenase deficiency treated with aldose reductase inhibitors
Assay type: cell-based
Conditions: for reduction of sorbitol levels in comparison to vehicle control: 72 hours, SDH-deficient patient fibroblasts, sorbitol by UPLC-MS/MS normalized to protein; for sorbitol levels in SORD fibroblasts (FIG. 1 legend): FIG. 1 histogram, SORD patient fibroblasts
Method: Fibroblasts were obtained from skin biopsy of normal human volunteers or patients with confirmed sorbitol dehydrogenase deficiency (biallelic c.757delG). Fibroblasts were cultured in triplicate in Dulbecco's modified Eagle's medium (ThermoFisher) supplemented with 10% fetal bovine serum, penicillin and streptomycin (Gibco). Cells were grown in 5% CO2 at 37° C. in a humidified incubator. Asynchronous cell cultures were grown to approximately 80% confluency, and then treated with vehicle, Compound A (100 uM) or Compound B (10 uM) for 72 hours. Th media containing vehicle, Compound A or Compound B, was changed every 24 hours.
Sorbitol and protein were determinated from lysates of human fibroblasts. For protein measurements, fibroblasts were collected and lysed in RIPA buffer (ThermoFisher) containing protease inhibitors (Roche) and sonicated for 5 minutes using a Bioruptor sonication device (Diagenode). Protein quantification was conducted using a Coomassie assay. For sorbitol determination, a UPLC-tandem mass spectrometry (MS/MS) (Waters Acquity UPLC & TQD mass spectrometer) was used, fibroblasts were collected and lysed in RIPA buffer (ThermoFisher) and sonicated for 5 minutes using a Bioruptor sonication device (Diagenode). Cell lysates were centrifuged 13,000 g for 10 minutes at 4° C., and the supernatants were collected for protein quantification and sorbitol measurement. For Sorbitol measurements, the lysate underwent protein precipitation with acetonitrile (1:5), tenfold dilution with acetonitrile/water (50:50) and cleanup on Oasis HLB cartridges (10 mg/ml), before injection (3 ul) into the UPLC system. The UPLC conditions were as follows: column: BHE amid 1.7 um (2.1×100 mm) at 88° C.; eluent A: acetonitrile 90%/water 5%/isopropanol 5%; eluent B: acetonitrile 80%/water 20%; gradient elution, 0 minutes 100% A to 3.6 minutes 100% B; flow rate of 0.45 ml/minute. The retention time of sorbitol was 2.7 minutes. The linearity of the method was assessed between 0.25 and 50 mgl^−1. The MS/MS conditions were as follows: interface, electrospray interface in negative ion mode; multiple reaction monitory acquisition, m z 180.0-88.9 (CV 24, CE 15). The detection limit (signal-to-noise ration=3) was 0.03 mgl^−1. Sorbitol levels were normalized to protein concentration.

Row | Structure (SMILES) | reduction of sorbitol levels in comparison to vehicle control (10 uM) | sorbitol levels in SORD fibroblasts (FIG. 1 legend) | reduction of sorbitol levels in comparison to vehicle control (100 uM)
1 | O=C(O)Cc1nn(Cc2nc3cc(C(F)(F)F)ccc3s2)c(=O)c2cscc12 [Compound B] | 75% | reduces sorbitol levels | 
2 | O=C(O)Cc1nn(Cc2nc3cc(C(F)(F)F)ccc3s2)c(=O)c2nccnc12 [Compound A] |  | reduces sorbitol levels | 78%
